pIC50: −log10 of the molar value.
Assays:
[1] = biological target: ALK tyrosine kinase receptor (Homo sapiens, UniProt Q9UM73); assay: Inhibition of wild type ALK (unknown origin)
[2] = biological target: ALK tyrosine kinase receptor (Homo sapiens, UniProt Q9UM73, G1202R); assay: Inhibition of ALK G1202R mutant (unknown origin)
[3] = Inhibition of ALK L1196M/G1202R mutant (unknown origin); parameters: species or system Homo sapiens
[4] = Metabolic stability in human liver microsomes assessed as half life; assay type: ADME, Microsome
[5] = Metabolic stability in human liver microsomes assessed as clearance; assay type: ADME, Microsome; settings: read-out: CLH
[6] = test system: BaF3; assay: Antiproliferative activity against EML4-ALK-L1196M/G1202R mutated mouse BaF3 cells assessed as cell growth inhibition by CCK-8 assay; assay type: functional, cell-based
[7] = Metabolic stability in human liver microsomes assessed as parent compound remaining measured after 60 mins; assay type: ADME, Microsome; settings: read-out: Stability
[8] = Antiproliferative activity against mouse Ba/F3 EML4-ALK-G1202R cells assessed as cell growth inhibition by CCK-8 assay; assay type: functional, cell-based
[9] = test system: KARPAS-299; assay: Antiproliferative activity against human KARPAS-299 cells assessed as cell growth inhibition by CCK-8 assay

Sequence of ALK tyrosine kinase receptor (Homo sapiens, UniProt Q9UM73) (Q9UM73 whole entry): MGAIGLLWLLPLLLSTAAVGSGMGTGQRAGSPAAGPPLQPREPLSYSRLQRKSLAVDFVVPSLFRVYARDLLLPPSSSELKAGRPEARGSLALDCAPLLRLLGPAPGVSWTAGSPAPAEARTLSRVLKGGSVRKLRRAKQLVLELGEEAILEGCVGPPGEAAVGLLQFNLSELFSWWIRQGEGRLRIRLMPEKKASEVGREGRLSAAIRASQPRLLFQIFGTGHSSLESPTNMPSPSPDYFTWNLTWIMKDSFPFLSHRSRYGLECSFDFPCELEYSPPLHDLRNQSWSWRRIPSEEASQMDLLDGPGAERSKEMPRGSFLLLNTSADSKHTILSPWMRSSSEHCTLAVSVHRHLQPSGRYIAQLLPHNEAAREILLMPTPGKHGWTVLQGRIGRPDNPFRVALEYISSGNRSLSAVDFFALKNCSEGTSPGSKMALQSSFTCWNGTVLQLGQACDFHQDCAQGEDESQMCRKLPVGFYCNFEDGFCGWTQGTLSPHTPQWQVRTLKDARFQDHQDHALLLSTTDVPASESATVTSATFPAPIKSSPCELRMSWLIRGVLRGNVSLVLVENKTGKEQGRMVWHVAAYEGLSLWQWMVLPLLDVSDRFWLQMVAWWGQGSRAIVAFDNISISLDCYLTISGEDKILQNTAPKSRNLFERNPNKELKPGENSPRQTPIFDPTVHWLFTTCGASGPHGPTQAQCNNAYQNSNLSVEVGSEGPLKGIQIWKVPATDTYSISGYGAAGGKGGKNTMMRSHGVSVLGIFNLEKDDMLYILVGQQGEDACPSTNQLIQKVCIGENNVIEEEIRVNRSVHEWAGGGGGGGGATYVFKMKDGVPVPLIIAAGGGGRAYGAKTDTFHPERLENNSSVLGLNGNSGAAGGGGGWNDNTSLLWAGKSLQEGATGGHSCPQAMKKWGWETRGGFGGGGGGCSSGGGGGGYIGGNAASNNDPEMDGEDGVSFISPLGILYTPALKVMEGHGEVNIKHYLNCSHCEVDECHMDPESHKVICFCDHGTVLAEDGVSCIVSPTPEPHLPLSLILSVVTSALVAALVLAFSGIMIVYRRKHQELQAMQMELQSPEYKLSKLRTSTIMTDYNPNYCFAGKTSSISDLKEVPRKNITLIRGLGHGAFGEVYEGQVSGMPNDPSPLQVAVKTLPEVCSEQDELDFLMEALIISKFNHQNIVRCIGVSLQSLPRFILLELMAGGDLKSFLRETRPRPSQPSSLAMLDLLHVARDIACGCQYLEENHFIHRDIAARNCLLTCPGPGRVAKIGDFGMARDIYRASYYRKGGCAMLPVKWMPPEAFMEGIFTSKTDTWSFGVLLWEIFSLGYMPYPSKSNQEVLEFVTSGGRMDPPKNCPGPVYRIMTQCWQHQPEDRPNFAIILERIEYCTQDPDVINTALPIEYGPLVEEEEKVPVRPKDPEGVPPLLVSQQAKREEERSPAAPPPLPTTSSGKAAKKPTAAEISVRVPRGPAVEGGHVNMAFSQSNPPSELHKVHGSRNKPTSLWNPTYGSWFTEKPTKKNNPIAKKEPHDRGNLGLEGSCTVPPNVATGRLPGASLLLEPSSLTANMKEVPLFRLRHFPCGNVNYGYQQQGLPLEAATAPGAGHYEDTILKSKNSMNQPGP
Sequence of ALK tyrosine kinase receptor (Homo sapiens, UniProt Q9UM73, G1202R) (Q9UM73 19-1620 G1202R limits assumed): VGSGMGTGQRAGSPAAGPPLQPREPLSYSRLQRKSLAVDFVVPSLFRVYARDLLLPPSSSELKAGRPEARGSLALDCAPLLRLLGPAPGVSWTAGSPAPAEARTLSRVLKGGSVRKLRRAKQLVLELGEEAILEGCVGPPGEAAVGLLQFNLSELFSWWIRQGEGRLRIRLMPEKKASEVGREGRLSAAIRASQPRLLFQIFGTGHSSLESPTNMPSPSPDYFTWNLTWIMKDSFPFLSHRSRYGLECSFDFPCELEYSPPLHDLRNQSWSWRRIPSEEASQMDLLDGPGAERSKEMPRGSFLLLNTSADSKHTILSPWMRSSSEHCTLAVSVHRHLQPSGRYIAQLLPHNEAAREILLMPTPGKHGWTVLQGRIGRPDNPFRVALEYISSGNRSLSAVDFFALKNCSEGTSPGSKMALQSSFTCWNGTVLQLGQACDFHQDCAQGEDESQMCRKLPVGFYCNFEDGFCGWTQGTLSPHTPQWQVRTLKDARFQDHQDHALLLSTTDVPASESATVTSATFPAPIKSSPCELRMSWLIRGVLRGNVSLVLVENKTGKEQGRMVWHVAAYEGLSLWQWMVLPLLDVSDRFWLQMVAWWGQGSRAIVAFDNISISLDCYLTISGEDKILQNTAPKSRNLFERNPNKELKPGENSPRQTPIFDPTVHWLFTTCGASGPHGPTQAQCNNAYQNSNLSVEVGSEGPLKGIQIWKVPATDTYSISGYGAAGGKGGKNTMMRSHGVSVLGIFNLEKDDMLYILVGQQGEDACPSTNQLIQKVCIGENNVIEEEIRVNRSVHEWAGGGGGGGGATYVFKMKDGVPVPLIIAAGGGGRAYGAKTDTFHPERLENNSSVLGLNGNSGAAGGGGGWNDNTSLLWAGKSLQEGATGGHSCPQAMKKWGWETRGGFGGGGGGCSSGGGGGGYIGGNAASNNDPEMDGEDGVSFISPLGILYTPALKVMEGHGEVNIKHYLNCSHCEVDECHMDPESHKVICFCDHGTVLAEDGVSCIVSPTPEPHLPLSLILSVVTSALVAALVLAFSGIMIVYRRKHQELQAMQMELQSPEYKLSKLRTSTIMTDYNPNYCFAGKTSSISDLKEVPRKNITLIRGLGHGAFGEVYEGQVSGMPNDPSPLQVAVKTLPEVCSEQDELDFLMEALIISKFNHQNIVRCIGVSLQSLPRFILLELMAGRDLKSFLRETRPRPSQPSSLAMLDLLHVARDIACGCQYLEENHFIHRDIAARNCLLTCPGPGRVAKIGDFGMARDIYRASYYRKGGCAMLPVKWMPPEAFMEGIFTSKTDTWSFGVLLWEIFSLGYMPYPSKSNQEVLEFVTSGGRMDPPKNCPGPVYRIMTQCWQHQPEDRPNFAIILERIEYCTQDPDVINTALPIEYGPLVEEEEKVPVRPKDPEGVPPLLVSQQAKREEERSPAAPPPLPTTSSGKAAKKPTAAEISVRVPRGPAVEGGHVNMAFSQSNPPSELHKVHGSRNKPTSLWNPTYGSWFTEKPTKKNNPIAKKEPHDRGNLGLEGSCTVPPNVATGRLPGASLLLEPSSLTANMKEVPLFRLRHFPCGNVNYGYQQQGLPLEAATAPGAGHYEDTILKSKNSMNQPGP

SMILES	pIC50 [1]	pIC50 [2]	pIC50 [3]	half-life [4]	microsomal CLint [5]	pIC50 [6]	remaining at 1 h [7]	pIC50 [8]	pIC50 [9]
CN1Cc2cc(F)ccc2OCC(C)(C)NC(=O)c2cnc3ccc1nn23	7.60	7.72	7.02						
CC1(C)COc2ccc(F)cc2CN(C2CCC2)c2ccc3ncc(n3n2)C(=O)N1	6.80	6.70	6.35						
C[C@H]1Nc2ccc3ncc(n3n2)C(=O)NC2(CCC2)COc2ccc(F)cc21	8.12	8.33	7.74						
C[C@H]1Nc2ccc3ncc(n3n2)C(=O)NCCOc2ccc(F)cc21	7.89	7.55	7.23						
C[C@H]1Nc2ccc3ncc(n3n2)C(=O)NC2(CC2)COc2ccc(F)cc21	8.38	8.10	7.62	33.8 min	41 µL/min/mg	7.12	28.8%	7.25	7.41
Cc1cc2ncc3n2nc1N[C@H](C)c1cc(F)ccc1OCC1(CC1)NC3=O	7.74	7.33	7.07						
C[C@H]1CNC(=O)c2cnc3ccc(nn23)N[C@H](C)c2cc(F)ccc2O1	8.29	7.96	7.66			6.83		7.08	7.14
C[C@@H]1Nc2ccc3ncc(n3n2)C(=O)NC2(CC2)COc2ccc(F)cc21	6.32	6.00							
C=CC[C@H]1Nc2ccc3ncc(n3n2)C(=O)NC2(CC2)COc2ccc(F)cc21	8.01	7.19	7.46						
CC1(C)COc2ccc(F)cc2CNc2ccc3ncc(n3n2)C(=O)N1	7.72	7.70	7.43						
C[C@H]1Nc2ccc3ncc(n3n2)C(=O)NC(C)(C)COc2ccc(F)cc21	8.08	8.19	7.59						
CC1(C)COc2ccc(F)cc2CN(C2CC2)c2ccc3ncc(n3n2)C(=O)N1	7.11	7.09	6.51						
CCN1Cc2cc(F)ccc2OCC(C)(C)NC(=O)c2cnc3ccc1nn23	7.57	7.66	7.08						
CCC[C@H]1Nc2ccc3ncc(n3n2)C(=O)NC2(CC2)COc2ccc(F)cc21	6.38	6.00							
C[C@H]1Nc2ccc3ncc(n3n2)C(=O)NC2(CC2)COc2ccc(Cl)cc21	7.54	7.25	6.98						
C[C@H]1Nc2ccc3ncc(n3n2)C(=O)NC2(CC2)COc2cc(F)ccc21	6.43	6.00	6.01						
CC(C)N1Cc2cc(F)ccc2OCC(C)(C)NC(=O)c2cnc3ccc1nn23	7.00	6.84	6.48						
C[C@H]1Nc2ccc3ncc(n3n2)C(=O)NC2(CC2)COc2ccccc21	7.57	7.01	6.76						
C[C@H]1CNC(=O)c2cnn3ccc(nc23)N[C@H](C)c2cc(F)ccc2O1 [REPOTRECTINIB]			7.70	54.1 min	25.6 µL/min/mg	6.68	46.1%	6.79	7.40

— ChEMBL document CHEMBL5257114, “Discovery of imidazo[1,2-b]pyridazine macrocyclic derivatives as novel ALK inhibitors capable of combating multiple resistant mutants” (Bioorg Med Chem Lett, 2023)
